Laboratory results published in PMC10708259 (Molecules, 2023).
Where a name gives a salt, the structure may show the parent alone.

Tests used:
[1] = molecular target: T1, human μ-opioid receptor (OPRM1) (Homo sapiens, UniProt P35372); test: cell-based; assay type: cell-based; details: for EC50: MOR Agonist EC50 ± SEM; for Emax: read-out: MOR Agonist %Emax ± SEM
T1 construct: host or cells: cAMP Hunter CHO-K1

[2] = molecular target: T2, human δ-opioid receptor (OPRD1) (Homo sapiens, UniProt P41143); test: Forskolin-induced cAMP accumulation assay, DOR agonist mode; details: for Emax: CHO-K1, read-out: DOR Agonist %Emax ± SEM
[3] = molecular target: T3, human κ-opioid receptor (OPRK1) (Homo sapiens, UniProt P41145); test: Forskolin-induced cAMP accumulation assay, KOR agonist mode; details: for Emax: CHO-K1, read-out: KOR Agonist %Emax ± SEM
[4] = molecular target: T3, human κ-opioid receptor (OPRK1); test: Forskolin-induced cAMP accumulation assay, KOR antagonist mode; details: for KOR Antagonist %Imax ± SEM: versus EC90 of U50488H, Imax normalized to nor-BNI
[5] = molecular target: T2, human δ-opioid receptor (OPRD1); test: Forskolin-induced cAMP accumulation assay, DOR antagonist mode

T3 sequence (P41145 whole entry): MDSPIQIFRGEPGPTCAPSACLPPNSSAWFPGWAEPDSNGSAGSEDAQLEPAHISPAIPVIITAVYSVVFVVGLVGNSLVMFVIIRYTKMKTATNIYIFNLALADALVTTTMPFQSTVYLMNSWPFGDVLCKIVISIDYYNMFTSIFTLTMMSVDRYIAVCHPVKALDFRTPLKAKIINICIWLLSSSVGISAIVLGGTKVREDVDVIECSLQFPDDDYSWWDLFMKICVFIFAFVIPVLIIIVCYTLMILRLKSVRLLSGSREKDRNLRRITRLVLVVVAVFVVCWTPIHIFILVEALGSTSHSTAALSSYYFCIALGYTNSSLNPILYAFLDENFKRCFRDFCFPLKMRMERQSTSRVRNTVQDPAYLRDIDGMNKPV
T1 sequence (P35372 whole entry): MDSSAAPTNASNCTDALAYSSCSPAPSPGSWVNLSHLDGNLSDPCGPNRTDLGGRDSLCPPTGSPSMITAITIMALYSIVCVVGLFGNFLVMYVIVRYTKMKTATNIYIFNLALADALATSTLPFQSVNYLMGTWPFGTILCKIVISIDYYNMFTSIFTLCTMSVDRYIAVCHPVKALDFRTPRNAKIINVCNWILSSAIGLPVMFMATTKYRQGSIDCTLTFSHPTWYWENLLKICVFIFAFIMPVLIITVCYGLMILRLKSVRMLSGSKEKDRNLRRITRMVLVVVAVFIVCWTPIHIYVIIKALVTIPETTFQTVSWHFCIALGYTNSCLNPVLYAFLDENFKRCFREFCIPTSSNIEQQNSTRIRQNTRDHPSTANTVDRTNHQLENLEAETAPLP
T2 sequence (P41143 whole entry): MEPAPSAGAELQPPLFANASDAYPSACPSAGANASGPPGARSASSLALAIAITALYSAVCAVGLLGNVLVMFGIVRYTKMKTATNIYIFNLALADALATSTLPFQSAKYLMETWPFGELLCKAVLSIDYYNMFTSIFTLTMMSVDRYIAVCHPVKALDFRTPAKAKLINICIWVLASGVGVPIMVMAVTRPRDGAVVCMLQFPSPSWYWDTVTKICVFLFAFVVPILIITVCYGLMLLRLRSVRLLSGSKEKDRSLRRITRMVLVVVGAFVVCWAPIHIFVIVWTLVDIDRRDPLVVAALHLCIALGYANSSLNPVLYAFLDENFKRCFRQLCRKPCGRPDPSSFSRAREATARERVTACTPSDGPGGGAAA

Compound | melting point | EC50 [1] [nM] | Emax [1] [%] | EC50 [2] [nM] | Emax [2] [%] | EC50 [3] [nM] | Emax [3] [%] | IC50 [4] [nM] | KOR Antagonist %Imax ± SEM [4] [%] | MOR agonist potency / efficacy in words [1] | IC50 [5] [µM]
CC1C2Cc3ccc(O)cc3C1(C)CCN2CCc1ccc([N+](=O)[O-])cc1 (as salt: HCl) [Compound 3, (1R,5R,9R)-6,11-Dimethyl-3-(4-nitrophenethyl)-1,2,3,4,5,6-hexahydro-2,6-methanobenzo[d]azocin-8-ol] | 273 to 274 °C (dec.) |  |  |  |  |  |  |  |  |  | 
CC1c2ccc(O)cc2[C@@]2(C)CCN(CCc3ccccc3)[C@@H]1[C@H]2C (single isomer, unassigned; (+)) [(+)-39] |  | 21.7 | 103 | 1340 ± 389 | 94 | 953 ± 120 | 37 | > 10000 |  |  | 
CC1c2ccc(O)cc2[C@]2(C)CCN(CCc3ccccc3)[C@H]1[C@@H]2C (single isomer, unassigned; (-)) [(−)-39] |  | 1.2 | 102 | 12.6 ± 3.9 | 91 | 20.7 ± 6.1 | 38 | 731 ± 362 | 57 ± 5 |  | 
CC1C2Cc3ccc(O)cc3C1(C)CCN2CCc1ccccc1[N+](=O)[O-] [Compound 5, (1R,5R,9R)-6,11-Dimethyl-3-(2-nitrophenethyl)-1,2,3,4,5,6-hexahydro-2,6-methanobenzo[d]azocin-8-ol] |  | 2.7 | 101 | 37 ± 6 | 73 | 16 ± 4 | 23 | 717 ± 132 | 89 ± 5 |  | 
C[C@H]1[C@H]2Cc3ccc(O)cc3[C@]1(C)CCN2CCc1ccc(F)cc1 [Compound 6, (2R,6R,11R)-6,11-Dimethyl-3-(4-fluorophenethyl)-1,2,3,4,5,6-hexahydro-2,6-methanobenzo[d]azocin-8-ol] |  | 1.8 | 100 | 12 ± 3 | 73 | 7 ± 3 | 34 | 368 ± 92 | 71 ± 2 |  | 
CC1C2Cc3ccc(O)cc3C1(C)CCN2CCc1cccc(F)c1 [Compound 7, (1R,5R,9R)-6,11-Dimethyl-3-(3-fluorophenethyl)-1,2,3,4,5,6-hexahydro-2,6-methanobenzo[d]azocin-8-ol] |  | 0.6 | 100 | 11 ± 4 | 86 | > 10000 |  | 274 ± 83 | 87 ± 2 |  | 
CC1C2Cc3ccc(O)cc3C1(C)CCN2CCc1cccc(Br)c1 [Compound 13, (1R,5R,9R)-6,11-Dimethyl-3-(3-bromophenethyl)-1,2,3,4,5,6-hexahydro-2,6-methanobenzo[d]azocin-8-ol] |  | 18 | 78 | 110 ± 24 | 51 | > 10000 |  | 90 ± 37 | 99 ± 2 |  | 
CC1C2Cc3ccc(O)cc3C1(C)CCN2CCc1cccc(Cl)c1 [Compound 16, (1R,5R,9R)-6,11-Dimethyl-3-(3-chlorophenethyl)-1,2,3,4,5,6-hexahydro-2,6-methanobenzo[d]azocin-8-ol] |  | 13 | 95 | 93 ± 25 | 64 | > 10000 |  | 111 ± 43 | 108 ± 10 |  | 
CC1C2Cc3ccc(O)cc3C1(C)CCN2CCc1ccc(Cl)cc1Cl [Compound 21, (1R,5R,9R)-6,11-Dimethyl-3-(2,4-dichlorophenethyl)-1,2,3,4,5,6-hexahydro-2,6-methanobenzo[d]azocin-8-ol] |  | 5 | 103 | 37 ± 9 | 86 | 42 ± 10 | 93 |  |  |  | 
CC1C2Cc3ccc(O)cc3C1(C)CCN2CCc1c(Cl)cccc1Cl [Compound 22, (1R,5R,9R)-6,11-Dimethyl-3-(2,6-dichlorophenethyl)-1,2,3,4,5,6-hexahydro-2,6-methanobenzo[d]azocin-8-ol] |  | 4 | 99 | 59 ± 25 | 78 | > 10000 |  | 65 ± 24 | 87 ± 7 |  | 
CC1C2Cc3ccc(O)cc3C1(C)CCN2CCc1ccccc1 [Compound 23, (1R,5R,9R)-6,11-Dimethyl-3-(phenethyl)-1,2,3,4,5,6-hexahydro-2,6-methanobenzo[d]azocin-8-ol] |  | 0.27 | 101 | 4 ± 1 | 85 | 3.4 ± 0.4 | 25 | 281 ± 94 | 81 ± 5 |  | 
C[C@H]1[C@H]2Cc3ccc(O)cc3[C@]1(C)CCN2CCc1c[nH]c2ccccc12 [Compound 26, (1R,5R,9R)-3-(2-(1H-Indol-3-yl)ethyl)-6,11-dimethyl-1,2,3,4,5,6-hexahydro-2,6-methanobenzo[d]azocin-8-ol] |  | 12 | 102 | 343 ± 35 | 91 | > 10000 |  | > 10000 |  |  | 
C[C@H]1[C@H]2Cc3ccc(O)cc3[C@]1(C)CCN2CCC1CCN(C)CC1 [Compound 28, (1R,5R,9R)-6,11-Dimethyl-3-(2-(1-methylpiperidin-4-yl)ethyl)-1,2,3,4,5,6-hexahydro-2,6-methanobenzo[d]azocin-8-ol] |  | > 10000 |  | > 10000 |  | 0.05 ± 0.02 | 15 | > 10000 |  | little or no potency | > 10
